From patent US9241486B2, “Combination and methods for controlling turfgrass pests” (Bayer CropScience LP, priority 2012, dated 2016)

Legend:
Assay type in all cases: in vivo
[1] = system: Southern Chinch Bug (Blissus insularis); assay: Field plot trial on St. Augustine grass infested with Southern Chinch Bug, number of live bugs (Example 1); details: for Number of Chinch bugs 0 Days After Application / Number of Chinch bugs 4 Days After Application / Number of chinch bugs 7 Days After Application / Number of chinch bugs 18 Days After Application: spray, 40 gallons water per acre, spirotetramat 111 g/ha, azadirachtin 222 g/ha, imidacloprid + azadirachtin 111 + 222 g/ha; for Control of Southern chinch bugs (in words): Example 1, summary of Table 1
Procedure: Plots approximately 6 feet by 10 feet with three replicates and planted with St. Augustine grass are infested with the Southern Chinch Bug (Blissus insularis). Using a sprayer (research back pack sprayers), Spirotetramat (MOVENTO 240 SC) on its own, azadirachtin (AZATIN XL) on its own, and a mixture of imidacloprid (MERIT 240 SC) and azadirachtin, are applied at the application rates specified. The water application rate is 40 gallons per acre. The evaluation is performed 0 days, 4 days, 7 days, and 18 days after the treatment by determining the number of live Southern Chinch Bugs.

St. Augustine grass = assay: Chlorophyll content of St. Augustine grass infected with Southern chinch bug (Example 2); details: Allectus 1083 g ai/ha total, imidacloprid 448.8 g ai/ha, spirotetramat 175.8 g ai/ha, mixture 175.8 + 448.8 g ai/ha; for Chlorophyll Content 5 days: 5 days after treatment; for Chlorophyll Content 13 days: 13 days after treatment; for Chlorophyll Content 41 days: 41 days after treatment; for Chlorophyll Content 58 days: 58 days after treatment
Text: (§1) Plots approximately 30 ft by 10 ft with 3 replicates and planted with St. Augustine grass are infected with Southern chinch bug (Blissus insularis). Using a pneumatic sprayer, a mixture of the spirotetramat (MOVENTO 240 SC) and imidacloprid (MERIT 240 SC) is applied in comparision to the spirotetramat (MOVENTO 240 SC) on its own, the imidacloprid (MERIT 240 SC) on its own, and the gold standard Pyrethrin treatment ALLECTUS™ (imidacloprid+bifenthrin), at the application rates specified. The water application rate is 40 gallons per acre. The evaluation is performed 0 days, 5 days, 13 days, 29 days, 41 days, and 58 days after the treatment by determining the number of chinch bugs and the chlorophyll content of the grass. The higher the chlorophyll content of the grass, the greener and lusher the grass is.

[2] = system: Southern Chinch Bug (Blissus insularis); assay: Field plot trial on St. Augustine grass infected with Southern chinch bug, number of chinch bugs (Example 2); details: for Number of chinch bugs at 0 Days / Number of chinch bugs at 5 days / Number of chinch bugs at 13 days / Number of chinch bugs at 29 days / Number of chinch bugs at 41 days / Number of chinch bugs at 58 days: Allectus 1083 g ai/ha total, imidacloprid 448.8 g ai/ha, spirotetramat 175.8 g ai/ha, mixture 175.8 + 448.8 g ai/ha; for Number of chinch bugs at 5 days: 5 days after treatment; for Number of chinch bugs at 13 days: 13 days after treatment; for Number of chinch bugs at 29 days: 29 days after treatment; for Number of chinch bugs at 41 days: 41 days after treatment; for Number of chinch bugs at 58 days: 58 days after treatment; for Control of Southern chinch bugs (in words): Example 2, summary of Table 2, up to 58 days after treatment
Text: as §1

SMILES	Number of Chinch bugs 0 Days After Application [1]	Number of Chinch bugs 4 Days After Application [1]	Number of chinch bugs 7 Days After Application [1]	Number of chinch bugs 18 Days After Application [1]	Chlorophyll Content 5 days (St. Augustine grass)	Chlorophyll Content 13 days (St. Augustine grass)	Chlorophyll Content 41 days (St. Augustine grass)	Chlorophyll Content 58 days (St. Augustine grass)	Control of Southern chinch bugs (in words) [1]	Number of chinch bugs at 0 Days [2]	Number of chinch bugs at 5 days [2]	Number of chinch bugs at 13 days [2]	Number of chinch bugs at 29 days [2]	Number of chinch bugs at 41 days [2]	Number of chinch bugs at 58 days [2]	Control of Southern chinch bugs (in words) [2]
C/C=C(\C)C(=O)O[C@H]1C[C@@H](OC(C)=O)[C@@]2(C(=O)OC)CO[C@H]3[C@@H](O)[C@@](C)([C@]45O[C@@]4(C)[C@H]4C[C@@H]5O[C@@H]5OC=C[C@@]54O)[C@H]4[C@]1(CO[C@]4(O)C(=O)OC)[C@@H]32 [Azadirachtin, azadirachtin]	12	15	5	11	–	–	–	–	–	–	–	–	–	–	–	–
O=[N+]([O-])/N=C1\NCCN1Cc1ccc(Cl)nc1 [Imidacloprid, imidacloprid]	–	–	–	–	2.733	3.215	3.185	3.250	none of the compounds provided good control	50	19	41	30	65	9	neither spirotetramat or imidacloprid alone provided good control
CCOC(=O)OC1=C(c2cc(C)ccc2C)C(=O)N[C@]12CC[C@@H](OC)CC2 [Spirotetramat]	6	12	6	10	3.338	3.250	2.292	2.149	none of the compounds provided good control	50	45	73	45	83	26	neither spirotetramat or imidacloprid alone provided good control
